{"source": "patent US6706509B2", "about": "“Oncoprotein protein kinase” (The Regents of the University of California, priority 1993, dated 2004)", "type_in_all_cases": "cell-based, human", "key": {"[1]": {"system": "c-jun", "experiment": "Northern blot of c-jun expression in Jurkat cells", "experimental": "(§1) Exponentially growing Jurkat cells (10^6/ml) grown in complete RPMI medium was pretreated with CsA for 15 minutes when applicable, then subjected to various treatments for another 40 minutes. Total cytoplasmic RNA was extracted as previously described (Angel, et al., Cell, 49:729-739, 1987). 10 μg RNA was denatured by incubating with glyoxal for 60 minutes at 55° C. and fractionated on a 1% agarose gel in phosphate buffer. The fractionated RNA was blotted to Zetabind Nylon membrane (CUNO Labs) and hybridized to ^32P-labelled cDNA probes specific for c-jun, jun-B, jun-D, c-fos, α-tubulin and IL-2.\n(§2) During the first stage of T lymphocyte activation, early response genes are rapidly included (Crabtree, Science, 243:355,361, 1989; Zipfel, et al., Mol Cell Bio., 9:1041-1048, 1989). […] After fractionation of 10 μg samples on an agarose gel and transfer to nylon membrane, the level of c-jun, jun-B, jun-D, c-fos and α-tubulin expression was determined by hybridization to random primed cDNA probes.\n(§3) Second, Jurkat cells were incubated with 10 μg/ml soluble anti-CD3 (OKT3), 2 μg/ml soluble anti-CD28 (9.3) or a combination of 50 ng/ml TPA and 1 μg/ml A23817 (T/A) as indicated for 40 minutes. Total cytoplasmic RNA was isolated and 10 μg samples were analyzed as described above using c-jun, jun-D and c-fos probes. […]"}, "[2]": {"system": "c-fos", "experiment": "Northern blot of c-fos expression in Jurkat cells", "experimental": "as §1, §2, §3"}, "[3]": {"system": "Ha-Ras", "experiment": "GTP content of Ha-Ras in 32P-labelled Jurkat cells", "settings": "for Ha-Ras activation measured by increase in GTP content, agent alone: 10 ng/ml TPA, 1 μg/ml anti-CD3 or 2 μg/ml anti-CD28, 2 minutes", "experimental": "Jurkat cells 10×10^6 were labelled for 3 hours with ^32P-orthophosphate (ICN Radiochemicals) at 1 mCi/ml in 5 mM of Na3VO4 phosphate-free DMEM supplemented with 1 mg/ml BSA. Before harvest, cells were stimulated with TPA, 10 ng/ml, A23187, 1 μg/ml anti-CD3 antibody (OKT3), 10 μg/ml, anti-CD28 antibody, 2 μg/ml or their combinations. After treatment for a specified period, cells were washed once immediately with ice cold PBS, twice with ice-cold Tris-Buffered saline (50 mM Tris-HCl, pH 7.5, 20 mM MgCl2, 150 mM NaCl, […] Nonidet P-40/1 μg/ml of aprotinin, leupeptin, pepstatin and 1 mM phenylmethyl sulfonylfluoride). Ras p21 was immunoprecipitated with monoclonal antibody […] (Santa Cruz Biotechnology, Inc., Santa Cruz, Calif.). The GDP/GTP content of Ras was analyzed by TLC as described (Satoh, et al., Proc. Natl. Acad. Sci., USA, 15:5993, 1990) and quantitated with an Ambis radioanalytic image system (Ambis, San Diego, Calif.).\nJurkat cells (2×10^6 cells per point) labeled with 0.4 mCi of ^32P-orthophosphate for 3 hours were incubated with nonspecific antibody (1 μg/ml mouse IgG; control), 1 μg/ml anti-CD3, 2 μg/ml anti-CD28, 10 ng/ml TPA or 500 ng/ml A23187 (A), as indicated. After 2 minutes, the cells were harvested, lysed and Ha-Ras was isolated by immunoprecipitation. The guanine nucleotide bound to Ha-Ras were extracted, separated by thin layer chromatography and quantitiated as described in EXAMPLE 9. The values shown represent the averages of two separate experiments done in duplicates. Jurkat cells were labeled with ^32P-orthophosphate and stimulated with either TPA or anti-CD3 as described above. At the indicated time points, the cells were harvested and the GTP content of Ha-Ras was determined as described directly above."}, "[4]": {"system": "ERK2", "experiment": "ERK2 MBP-kinase activity after anti-ERK2 immunoprecipitation, Jurkat cells", "experimental": "WCE (50 μg) of Jurkat cells treated as described above were incubated with GSTcJun(1-223)-GSH agarose beads and assayed for JNK activity using the solid-state kinase assay. The same WCE (20 μg) were immunoprecipitated with anti-ERK2 antibodies and assayed for MBP-kinase activity.\nWCE (50 μg) of Jurkat cells treated as described in Panel A with various stimuli alone or their combinations were incubated with GSTcJun(1-223)-GSH agarose beads and assayed for JNK activity using solid-state kinase assay. The same samples (20 μg) were also assayed for MBP-kinase activity as described in FIG. 16B."}}, "data": [{"compound": "anti-CD3: anti-CD3 monoclonal antibody OKT3", "values": [{"measurement": "c-jun expression, agent alone", "setting": "[1]; soluble anti-CD3, 40 minutes", "result": "induction"}, {"measurement": "c-fos expression, agent alone", "setting": "[2]; soluble anti-CD3, 40 minutes", "result": "induction"}, {"measurement": "Ha-Ras activation measured by increase in GTP content, agent alone", "setting": "[3]", "result": "activation of Ha-Ras"}, {"measurement": "time course of Ha-Ras response", "setting": "[3]; soluble anti-CD3", "result": "highly transient"}]}, {"compound": "cyclosporin A [CsA]", "values": [{"measurement": "effect on synergistic induction of c-jun by both costimulatory paradigms", "setting": "[1]; CsA 100 ng/ml with TPA+A23187 or anti-CD3+anti-CD28, 40 minutes", "result": "partially inhibited"}, {"measurement": "effect on maximal induction of c-fos by TPA+A23187", "setting": "[2]; CsA 100 ng/ml, 40 minutes", "result": "not inhibited"}, {"measurement": "ERK2 activation by anti-CD3, effect of CsA", "setting": "[4]; CsA 100 ng/ml", "result": "nor was it inhibited"}]}, {"compound": "CNc1ccc2oc(C[C@H]3O[C@@]4(CC[C@H]3C)O[C@H]([C@H](C)C(=O)c3ccc[nH]3)[C@H](C)C[C@H]4C)nc2c1C(=O)O", "note": "[A23187]", "values": [{"measurement": "Ha-Ras activation by anti-CD3 or TPA, costimulation with anti-CD28 or A23187, respectively", "setting": "[3]", "result": "not augmented"}]}, {"compound": "CCCCCCCCCCCCCC(=O)O[C@@H]1[C@@H](C)[C@@]2(O)[C@@H](C=C(CO)C[C@]3(O)C(=O)C(C)=C[C@@H]23)[C@H]2C(C)(C)[C@]12OC(C)=O", "note": "[TPA]", "values": [{"measurement": "ERK2 activation, suboptimal dose of TPA by itself", "setting": "[4]", "result": "partial activation of ERK2"}, {"measurement": "Ha-Ras activation measured by increase in GTP content, agent alone", "setting": "[3]", "result": "activation of Ha-Ras"}, {"measurement": "persistence of Ha-Ras activation", "setting": "[3]; TPA", "result": "at least 20 minutes"}]}]}
